Legend:
CLL cells [1] = test: LC3 confocal immunofluorescence (autophagosome formation) in CLL cells in vitro; type: cell-based, human; details: CLL patient cells, 4 hours; rapamycin 5 μM, thapsigargin 1 μM, F-ara-A 5 μM, chlorambucil 20 μM, CAL-101 1 μM, rituximab 10 μg/ml, flavopiridol 2 μM, CQ 0.5 μM
Experimental: (§1) After 4 hours exposure to agents, cells were washed in phosphate-buffered saline (PBS) and made adherent on a microscope slide by centrifugation in a Cytospin3 (Shandon) centrifuge. Immediately after cytospin, cells were fixed in cold acetone. […] Nuclei were stained blue with DAPI (Vector Laboratories, Burlingame, Calif.). Images were taken using a 60× objective and 4× digital zoom with Olympus Fluoview 1000 Laser Scanning Confocal microscope at the Ohio State University Campus Microscopy and Imaging Facility. ATF6 antibody was purchased from LifeSpan Biosciences (Seattle, Wash.) and Nrf2 was from Santa Cruz Biotechnology (Santa Cruz, Calif.). Nuclei were evaluated for ATF6 and Nrf2 using confocal microscopy to collect Z stacks, approximately 45 slices per cell, 0.2 μm each.
LC3 intensity and number of dots per cell were both assessed in the fluorescence images. Integrated intensity was measured using Metamorph v.7.0. To calculate the number of “dots” (local extreme point in pixel-intensity profile at which a number of high-intensity pixels form a cluster), a Gaussian filter was first applied to reduce noise. Cells were enumerated electronically by an improved watershed-based algorithm. To quantify co-localization, two binary nuclei images—red (R) and green (G)—are obtained. The correlation value is calculated as the number of white pixels of (R&G) divided by the number of pixels of (RIG), where (R&G) is the intersection of R and G, and (RIG) is the union of R and G. The program used for cell counts and measurement of correlation index is based on MatLab software (Natick, Mass.) and it was developed by members of Department of Biomedical Informatics, The Ohio State University.

CLL cells [2] = test: Cell viability by annexin V/PI flow cytometry in CLL cells
Experimental: Percent of live cells was determined by staining with annexin V-fluorescein isothiocyanate and propidium iodide (PI). After exposure to agents, cells were washed with PBS and stained in 1× binding buffer (BD Biosciences, Franklin Lakes, N.J.). Cell viability was assessed by flow cytometry using a Beckman-Coulter Cytomics FC500 cytometer. Data were analyzed with the CXP Cytometer software package (Beckman-Coulter). A total of 10,000 cells were counted for each sample. The cells treated with flavopiridol were washed after 4 hours with PBS and re-suspended in regular growth medium (RPMI 1640) supplemented with 10% human serum and antibiotics for the remainder of the incubation time. […] For all the other conditions, cells were incubated with the respective drugs for 24 hours continuously.
CLL cells were suspended in buffer V (Amaxa kit, Lonza, Allendale, N.J.) and nucleofection was performed using program U016 (5 μg siRNA and 1×10^7 cells per cuvette). Scrambled siRNA and siRNAs to ATG5, ATG7 and ASK1 were purchased from Sigma-Aldrich. Cells were immediately suspended in warm, complete media supplemented with 10% human serum, and RNA was extracted after 36 hours. For CDK1 and CDK5, siRNAs were purchased from Applied Biosystems (Carlsbad, Calif.). Transfections were done using 5 nM siRNA per cuvette, and RNA was harvested at 48 hours.

XBP1, IRE1, GRP78 = test: Real-time RT-PCR of ER stress genes in CLL cells in vitro; type: cell-based, human; details: CLL cells n=5; flavopiridol 2 μM, thapsigargin 1 μM, tunicamycin 3 μg/ml; CD52 control gene
Experimental: (§2) RNA was extracted using TRIzol reagent (Invitrogen, Carlsbad, Calif.) and purified using QIAGEN RNeasy columns (Qiagen, Valencia, Calif.). cDNA was prepared with SuperScript First-Strand Synthesis System (Invitrogen). Real-time PCR was performed using primers purchased from Applied Biosystems. Detection was performed using an ABI Prism 7700 sequence detection system (Applied Biosystems). Average relative expression (treatment compared with vehicle) was normalized to the internal control gene CD52. Primers to detect spliced XBP1 were designed using Primer 3 software and purchased from IDT. Samples were analyzed on 10% acrylamide gels.

PERK = PERK activity by eIF2α phosphorylation immunoblot in CLL cells; type: cell-based, human
Experimental: (§3) Proteins extracted from whole cell lysates (50 μg/lane) were separated on polyacrylamide gels and transferred on nitrocellulose membrane. Antibodies used for immunoblots included LC3, IRE1α, TRAF2, PI3K III, ATG4C, ATG5-12, UVRAG, Beclin-1 (Cell Signaling, Boston, Mass.), GAPDH, Nrf2, ASK1, ULK1 (Santa Cruz Biotechnology), and Bif-1, ATG14-Barkor (Sigma-Aldrich, St Louis, Mo.). Species-appropriate secondary antibodies were obtained from BioRad Laboratories (Hercules, Calif.). Following antibody incubations, proteins were detected using a chemiluminescent substrate (BioRad Laboratories). For co-immunoprecipitations, TrueBlot beads (eBiosciences, San Diego, Calif.) and One-hour IP Western kit (GenScript, Piscataway, N.J.) were used according to manufacturer protocols. Quantification was done using FluorChem Q (Alpha Innotech, San Leandro Calif.).

Jurkat cell line = test: eIF2α phosphorylation immunoblot in cell lines (control); type: cell-based
Experimental: as §3

IRE1 = test: XBP1 splicing (IRE1 activity) PCR in CLL cells; type: cell-based, human; details: for induction of XBP1 splicing: CLL samples
Experimental: as §2

[3] = tested on: cell lines 293T, RAW and 697, normal B cells; test: XBP1 splicing PCR in normal B cells and cell lines; type: cell-based
Experimental: as §2

ATF6 = ATF6 nuclear translocation by confocal fluorescence microscopy in CLL cells; type: cell-based, human; details: CLL patient cells, flavopiridol 2 μM or thapsigargin 1 μM, 4 hours
Experimental: After 4 hours exposure to agents, cells were washed in phosphate-buffered saline (PBS) and made adherent on a microscope slide by centrifugation in a Cytospin3 (Shandon) centrifuge. Immediately after cytospin, cells were fixed in cold acetone. Next, the cells were incubated in blocking solution (2% bovine serum albumin in PBS) and stained for LC3 (Cell Signaling, Boston, Mass.)) and Lamp2 (Santa Cruz Biotechnology, Santa Cruz, Calif.) by incubating separately with the respective primary antibodies over night, in 4° C., followed by incubation with fluorescent secondary antibodies (Invitrogen, Carlsbad, Calif.): Alexa fluor 594 (red) anti-rabbit for LC3 and Alexa fluor 488 (green) anti-mouse for Lamp2. Nuclei were stained blue with DAPI (Vector Laboratories, Burlingame, Calif.). Images were taken using a 60× objective and 4× digital zoom with Olympus Fluoview 1000 Laser Scanning Confocal microscope at the Ohio State University Campus Microscopy and Imaging Facility. ATF6 antibody was purchased from LifeSpan Biosciences (Seattle, Wash.) and Nrf2 was from Santa Cruz Biotechnology (Santa Cruz, Calif.). Nuclei were evaluated for ATF6 and Nrf2 using confocal microscopy to collect Z stacks, approximately 45 slices per cell, 0.2 μm each.

697 cells = test: ChIP assay of ATF6 at GRP78 promoter in 697 cells; type: cell-based; details: relative to IgG control
Experimental: In brief, cells were treated with 37% formaldehyde to ensure crosslinking of proteins to DNA. Cells were lysed and sonicated to shear the chromatin to fragments of approximately 500 bp. Sheared chromatin was incubated with ATF6 antibody (LifeSpan Biosciences, Seattle, Wash.), followed by precipitation, washing and reversing of the crosslinks Purified DNA was then analyzed by real-time quantitative PCR using primers to the GRP78 promoter region. Primers were designed using Primer 3 software and purchased from IDT (Coralville, Iowa).

JNK1 and p38MAPK = test: Immunoblot of phosphorylated JNK1 and p38MAPK in CLL cells in vitro; type: cell-based, human; details: flavopiridol 2 μM, thapsigargin 1 μM, F-ara-A 5 μM
Experimental: as §3

CLL cells [4] = test: LC3-Lamp2 co-localization (autophagosome-lysosome fusion) by confocal microscopy in CLL cells; type: cell-based, human; details: CLL cells incubated with 5 μM rapamycin (FIG. 9)
Experimental: as §1
LC3 intensity and number of dots per cell were both assessed in the fluorescence images. Integrated intensity was measured using Metamorph v.7.0. To calculate the number of “dots” (local extreme point in pixel-intensity profile at which a number of high-intensity pixels form a cluster), a Gaussian filter was first applied to reduce noise. Cells were enumerated electronically by an improved watershed-based algorithm. To quantify co-localization, two binary nuclei images—red (R) and green (G)—are obtained. […]

caspase 4 = test: Caspase 4 activity (AFC assay) in CLL cells treated in vitro; type: cell-based, human; details: Z-YVAD-FMK 20 μM in combination with flavopiridol, thapsigargin or tunicamycin
Experimental: (§4) The presence of active caspase enzymes was determined by the AFC assay. Briefly, lysates containing approximately 3×10^6 cells were incubated with 50 μM LEVD-AFC (caspase 4 substrate) or LETD-AFC (caspase 8 substrate) from MP Biomedicals (Solon, Ohio) in 2× cytobuffer from BioVision (Exton, Pa.) containing 10 mM dithiothretiol (DTT). Caspase 4 activity was measured one hour after addition of substrate and caspase 8 activity was measured 30 minutes after addition of substrate. Release of free AFC was measured with a Beckman-Coulter DTX 880 multimode detector (Filters: excitation, 405/10 nm; emission, 535/25 nm). Caspase 4 inhibitor Z-YVAD-FMK was purchased from R&D Systems.

caspase 8 = test: Caspase 8 activity (AFC assay) in CLL cells treated in vitro; type: cell-based, human; details: Z-YVAD-FMK 20 μM in combination with flavopiridol, thapsigargin or tunicamycin
Experimental: as §4

## C/C=C(/C)C(=O)O[C@H]1C(C)=C2[C@H]([C@@H]1OC(=O)CCCCCCC)[C@@](C)(OC(C)=O)C[C@H](OC(=O)CCC)[C@@]1(O)[C@H]2OC(=O)[C@@]1(C)O [thapsigargin]
CLL cells [1]
  LC3 aggregation / LC3 fluorescence (autophagosome formation) versus vehicle: increase in LC3 aggregation
CLL cells [2]; CLL cells, annexin/PI negative, CQ 0.5 μM, flavopiridol 4 hours then washed, CQ continuous 24 hours
  effect of chloroquine addition on cell death caused by the agent: significantly enhanced
CLL cells [2]; human, 24 h, 1 μM
  effect of ATG5/ATG7 siRNA vs scrambled siRNA on cytotoxicity of the agent: significantly (P=0.0047) enhanced
XBP1, IRE1, GRP78
  expression of ER stress genes XBP1, IRE1 and GRP78: significant, time-dependent increase in expression of ER stress genes XBP1, IRE1 and GRP78
PERK
  PERK activity (phosphorylation of eIF2α): minimally active
Jurkat cell line
  eIF2α phosphorylation: dramatic EIF2α phosphorylation
IRE1; CLL cells
  IRE1 activity (splicing of IRE1 substrate XBP1): no evidence of IRE1 activity
IRE1
  induction of XBP1 splicing: neither thapsigargin nor tunicamycin induced XBP1 splicing in any of the samples analyzed
[3]
  XBP1 splicing: XBP1 splicing is detected
ATF6
  ATF6 nuclear translocation: increased nuclear translocation
697 cells
  binding of GRP78 promoter region by ATF6: enhanced binding of the GRP78 promoter region by ATF6
JNK1 and p38MAPK
  phosphorylation of JNK1 and p38MAPK: induced the phosphorylation of both JNK1 and p38MAPK

## tunicamycin
XBP1, IRE1, GRP78
  expression of ER stress genes XBP1, IRE1 and GRP78: significant, time-dependent increase in expression of ER stress genes XBP1, IRE1 and GRP78
IRE1
  induction of XBP1 splicing: neither thapsigargin nor tunicamycin induced XBP1 splicing in any of the samples analyzed

## CCN(CC)CCCC(C)Nc1ccnc2cc(Cl)ccc12 (centres unmarked) [chloroquine]
CLL cells [4]
  chloroquine concentrations that inhibit autophagosome-lysosome fusion: 0.1 to 0.5 µM

## rituximab: agent used in CLL, from Genentech
CLL cells [1]
  LC3 aggregation / LC3 fluorescence (autophagosome formation) versus vehicle: neither chlorambucil nor rituximab produced this effect

## Z-YVAD-FMK
CLL cells [2]; CLL cells n=5, Z-YVAD-FMK 20 μM, flavopiridol 2 μM, 24 hours
  effect on flavopiridol-mediated cell death: significantly (P=0.012) reduced
Caspase 4
  inhibition of agent-induced caspase 4 activity: successfully inhibited
Caspase 8
  inhibition of agent-induced caspase 8 activity: successfully inhibited

## O=C(O)CCCc1ccc(N(CCCl)CCCl)cc1 [chlorambucil]
CLL cells [1]
  LC3 aggregation / LC3 fluorescence (autophagosome formation) versus vehicle: neither chlorambucil nor rituximab produced this effect
